The source of these data is US4645770A, “Agent for treating Parkinson's disease or Parkinsonism” (priority 1985, dated 1987).

Counter-ions that a name gives are not always drawn.

Data set [1] deals with presynaptic dopaminergic receptors. As to conditions: Anden et al., 1983; cited from earlier work.
Data set [2] has as its system denervated post-synaptic DA receptors. The data set is described as follows: Contralateral rotation on the 6-OHDA model. It is filed as in vivo, rat.
Data set [3] relates to MPTP Parkinsonism syndrome. The data set is described as follows: MPTP model of Parkinson's disease in Rhesus monkeys. The class given is in vivo. From the text: The irreversible neurological syndrome triggered in monkeys and humans by MPTP largely resembles idiopathic Parkinson's disease in its clinical, pathological, biochemical and pharmacological features (Markey et al., Nature 311, 464 (1984)). The reason for this strong similarity is the fact that MPTP selectively destroys the small group of dopaminergic nerve cells in the substantia nigra of the brain which are also destroyed by degenerative processes in naturally occurring Parkinson's disease. There is even some discussion to the effect that idiopathic Parkinson's disease might be caused by MPTP or a similar chemical compound formed in the organism (Snyder, S. H., Nature 311, 514 (1984)). Possibly as a result of the specific metabolism of MPTP, the clinical features of the MPTP Parkinsonism syndrome have been thusfar only been detected in monkeys and man. The MPTP model produced in Rhesus monkeys is therefore exceptionally suitable for testing the effect of anti-Parkinson's drugs.
Voluntary movements of the hindquarters and extremities could not generally be initiated even by extreme and painful stimulation.
After the intramuscular administration of B-HT 920 (50-100 mcg/kg) the first voluntary movements occurred at a time interval of 5 to 10 minutes, followed in the next 10 to 30 minutes by a gradual, extensive normalization of motor function. The animals were capable of taking food. They maintained thier normal posture within their cages and also behaved normally in terms of vigilance and species-specific behavior. […] There was no sedation.

Data set [4] concerns postsynaptic dopamine (DA) receptors. Briefly: Ipsilateral rotation in the ibotenic acid model. It is filed as in vivo, rat.
The test system of data set [5] is "naive" rat. The data set is described as follows: Spontaneous motor activity: non-ambulatory (stereotypical) movements, Opto-Varimex 3. It is filed as in vivo. As to conditions: for Stereotypical movements (Movements/15 min.): from 55 minutes after injection. The method, then: (§1) (A) Spontaneous motor activity in the "naive" rat
(§2) Two aspects of motor function were recorded with a known "Opto-Varimex 3":
(b) "non-ambulatory" movements which are made up essentially of stereotypical movements, which began to be recorded 45 minutes after the animals had been put into the recording cage (and 55 minutes after s.c. injection).
(§3) The following doses of B-HT 920 were tested: 0.02, 0.2, 2.0 mg/kg s.c.. As a comparison apomorphine was tested in a dosage of 0.1 mg/kg s.c.

For data set [6], the system named is "naive" rat. The data set is described as follows: Spontaneous motor activity: ambulatory movements (exploratory activity), Opto-Varimex 3. As to conditions: for Contacts broken (exploratory activity/5 min.): first 5 minutes after injection. It is filed as in vivo. The method, then: as §1, §2
(a) "ambulatory" movements in the first 5 minutes after s.c. injection of B-HT 920; this phase of locomotor function corresponds to the so-called "exploratory activity" of rats in a new environment;
as §3

A short description of data set [7]: Oral acute toxicity (LD50) in the mouse. The following applies: in vivo.

Broadly, the LD50 is the dose at which mortality reaches 50%. A higher LD50 goes with lower toxicity.

Consider `C=CCN1CCc2nc(N)sc2CC1` [B-HT 920, 2-amino-6-allyl-5,6,7,8-tetrahydro-4H-thiazole-[4,5-d]azepine dihydrochloride], for which the “Agonist effect on presynaptic dopaminergic receptors” value in data set [1] is on record as “agonist with a selective effect on presynaptic dopaminergic receptors”. Moreover, the “Contralateral rotations up to 6 hours” value in data set [2] (0.02 mg/kg) amounted to 168 Contralateral rotations; in data set [2] (0.05 mg/kg), 582 Contralateral rotations; in data set [2] (0.5 mg/kg), 1282 Contralateral rotations; in data set [2] (1.0 mg/kg) it was 1442 Contralateral rotations. For the same compound, the “Activity on denervated receptors” value in data set [2] (by contrast with its weak effect on normal DA receptors) is “exceptionally strong activity on denervated receptors”. Moreover, the “Behavior of the animals after administration” value in data set [3] (50-100 mcg/kg intramuscular) was “The animals were capable of taking food. They maintained thier normal posture within their cages and also behaved normally in terms of vigilance and species-specific behavior”. The Residual symptoms recorded entry in data set [3] (50-100 mcg/kg intramuscular) is “an occasional, transient, slight resting tremor and a reduction in brute strength”. The Sedation entry in data set [3] (50-100 mcg/kg intramuscular) was “no sedation”. Also, the “Time after which the effect diminished” value in data set [3] (50-100 mcg/kg intramuscular) is “about 3 hours”. In data set [3] (50-100 mcg/kg intramuscular, compared with the state before administration), the “Blood supply to the skin” value is “appeared to be increased”. The “Effect of fresh administration on clinical pathological symptoms” value in data set [3] (after reversion to the Parkinson's symptoms) is reported as “improvement or substantial removal of the clinical pathological symptoms”. In addition, the Side effects entry in data set [3] (at the dosages used) is listed as “No side effects were discovered”. The “Ipsilateral rotations/duration of activity” value in data set [4] (0.2 mg/kg s.c., up to 6 hours) is recorded as 37 Ipsilateral rotations/duration of activity; in data set [4] (0.5 mg/kg s.c., up to 6 hours) it was 54 Ipsilateral rotations/duration of activity; in data set [4] (1.0 mg/kg s.c., up to 6 hours), 102 Ipsilateral rotations/duration of activity; in data set [4] (2.0 mg/kg s.c., up to 6 hours), 96 Ipsilateral rotations/duration of activity. Moreover, in data set [4] (compared with apomorphine), the “Activity on the normally sensitive DA receptor (in words)” value is “only a weak activity”. Besides, in data set [4] (fraction of the activity of apomorphine), the “Post-synaptic DA-agonistic activity relative to apomorphine on the normally sensitive DA receptor” value is “about one eighth”. Besides, the “Stereotypical movements (Movements/15 min.)” value worked out at 370 Movements/15 min in the data set with "naive" rat [5] (0.2 mg/kg s.c.), 310 Movements/15 min with "naive" rat [5] (2.0 mg/kg s.c.) and 340 Movements/15 min in the data set on "naive" rat [5] (4.0 mg/kg s.c.). Moreover, the “Increase in the number of stereotypical movements” value with "naive" rat [5] (any of the doses tested) is reported as “did not lead to an increase in the number of stereotypical movements”. The “Contacts broken (exploratory activity/5 min.)” value with "naive" rat [6] (0.02 mg/kg s.c.) was 380 /5 min; in the data set on "naive" rat [6] (0.2 mg/kg s.c.) it was 150 /5 min; in the data set with "naive" rat [6] (2.0 mg/kg s.c.), 130 /5 min. In addition, the “Inhibitory effect on the exploratory activity” value in the data set with "naive" rat [6] (0.2 mg/kg, compared with 0.1 mg/kg of apomorphine) is reported as “almost maximum”.
As for `C=CCN1CCc2nc(N)sc2CC1` [Compound A, 2-amino-6-allyl-5,6,7,8-tetrahydro-4H-thiazolo[4,5-d]azepine], the LD50 in data set [7] stood at 455 mg/kg.
In the case of `CN1CCc2cccc3c2[C@H]1Cc1ccc(O)c(O)c1-3` [apomorphine, reference compound], in data set [2] (0.05 mg/kg), the “Contralateral rotations up to 6 hours” value turned out to be 557 Contralateral rotations. Further, the “Ipsilateral rotations/duration of activity” value is 265 Ipsilateral rotations/duration of activity in data set [4] (0.5 mg/kg s.c., up to 3 hours); 436 Ipsilateral rotations/duration of activity in data set [4] (1.0 mg/kg s.c., up to 3 hours); 880 Ipsilateral rotations/duration of activity in data set [4] (10.0 mg/kg s.c., up to 3 hours). The “Stereotypical movements (Movements/15 min.)” value with "naive" rat [5] (4.0 mg/kg s.c.) was 650 Movements/15 min. In addition, in the data set with "naive" rat [6] (0.1 mg/kg s.c.), the “Contacts broken (exploratory activity/5 min.)” value is reported as 150 /5 min.
